This is an account of results in PubChem BioAssay (NCI).

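48-hour exposure; five concentrations; linearly interpolated endpoints. At the GI50, growth is halved. The concentration for full growth arrest is given as TGI.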 A value given as a limit tells only on which side of the number the result lay.

Among the test systems are MDA-MB-231 breast; PC-3 prostate; MCF7 breast; MDA-N.
Experiment in all cases: NCI anticancer screen, dose series, 48 h

Turning to `Cc1ccc2nc(NC(=O)CSC(=S)N3CCN(Cc4ccccc4)CC3)sc2c1`, the GI50 is more than 100 µM in the experiment on MDA-MB-231 breast, more than 100 µM in the experiment with PC-3 prostate and 64.5 µM in the experiment on MCF7 breast. Also, the TGI with MDA-MB-231 breast, in the experiment with PC-3 prostate and with MCF7 breast was more than 100 µM in each case.

As to `CCN(CCc1ccc(F)cc1)c1ccc(CO)c(Cl)c1`, the GI50 was 11.4 µM in the experiment with MDA-MB-231 breast, 10.9 µM in the experiment with PC-3 prostate and 4.72 µM in the experiment with MCF7 breast. For the same compound, the values for the TGI in the experiment on MDA-MB-231 breast, with PC-3 prostate and with MCF7 breast were 24.4 µM, 24.8 µM and 19.9 µM, respectively.

Consider `O=C(O)C1(C(=O)O)CCN(S(=O)(=O)c2ccccc2)CC1`, for which the TGI with MDA-MB-231 breast, with PC-3 prostate, in the experiment with MCF7 breast and with MDA-N was more than 100 µM throughout.

Take `COc1cc(C)c(N(C)C(=O)CN(C)C)cc1Nc1nc(Nc2cccc(F)c2C(N)=O)c2cc[nH]c2n1`: the GI50 in the experiment on MDA-MB-231 breast is more than 25 µM; with PC-3 prostate it was more than 25 µM; in the experiment on MCF7 breast, 2.7 µM. Besides, the TGI with MDA-MB-231 breast, in the experiment with PC-3 prostate and with MCF7 breast was more than 25 µM throughout.

In the case of `CCOc1ccc2c(-c3ccnc(Nc4cccc(C(F)(F)F)c4)n3)cnn2n1`, the values for the GI50 in the experiment on MDA-MB-231 breast, with PC-3 prostate and in the experiment on MCF7 breast were 14.7 µM, more than 16.1 µM and 0.979 µM, respectively. For the same compound, the figures for the TGI in the experiment on MDA-MB-231 breast, in the experiment with PC-3 prostate and in the experiment with MCF7 breast were more than 25 µM, more than 25 µM and more than 12.2 µM, respectively.

Consider `COc1cccc2c1C(=O)c1c(O)c3c(c(O)c1C2=O)C[C@@](O)(C(=O)COC(=O)c1cccnc1)C[C@@H]3OC1CC(N)C(O)C(C)O1` (some centres not stated), for which the GI50 with MDA-MB-231 breast is 0.327 µM; with PC-3 prostate it was 0.222 µM; in the experiment with MCF7 breast, 0.033 µM. The TGI in the experiment with MDA-MB-231 breast is 1.96 µM; in the experiment with PC-3 prostate, 1.43 µM; in the experiment with MCF7 breast, 2.08 µM.

`C=C(C)[C@@H]1CC[C@]2(C)[C@H](CC=C3[C@@H]4CC(C)(C)CC[C@]4(C(=O)OC)CC[C@]32C)[C@@]1(C)CC/C(N)=N/O`: the GI50 was 1.61 µM in the experiment on MDA-MB-231 breast, 1.91 µM in the experiment on PC-3 prostate and 2.13 µM in the experiment with MCF7 breast. Besides, the TGI in the experiment on MDA-MB-231 breast is 3.24 µM; in the experiment with PC-3 prostate it was 7.81 µM; in the experiment on MCF7 breast it was 5.3 µM.

For `c1ccc(CN2CCC3(CC2)ONC2=NCCN23)cc1`, the GI50 was more than 100 µM in the experiment with MDA-MB-231 breast, 49.5 µM in the experiment with PC-3 prostate and 71.3 µM in the experiment on MCF7 breast. Further, the TGI with MDA-MB-231 breast, with PC-3 prostate and with MCF7 breast was more than 100 µM throughout.

In the case of `CC(C)(C)OC(=O)N(CCCn1c2c(c3ccccc3c1=O)C(=O)c1ccccc1-2)CCN(CCCn1c2c(c3ccccc3c1=O)C(=O)c1ccccc1-2)C(=O)OC(C)(C)C`, the GI50 was 15.3 µM in the experiment with MDA-MB-231 breast, more than 50 µM in the experiment on PC-3 prostate and 21.3 µM with MCF7 breast. Also, the TGI in the experiment with MDA-MB-231 breast, in the experiment on PC-3 prostate and in the experiment with MCF7 breast was more than 50 µM in each case.

As for `COc1ccc(CNCCCN2C(=O)c3ccc4c5c(ccc(c35)C2=O)C(=O)N(CCCNCCCCNCCCN)C4=O)c(OC)c1OC`, the GI50 was 2.44 µM with MDA-MB-231 breast, 2.4 µM in the experiment with PC-3 prostate and 0.355 µM with MCF7 breast. In addition, the TGI in the experiment with MDA-MB-231 breast was 18 µM; in the experiment on PC-3 prostate it was 26.3 µM; in the experiment with MCF7 breast, 1.62 µM.

For the compound `COc1ccccc1NC(=O)N/C(N)=N/c1nc2ccccc2s1`, the GI50 in the experiment on MDA-MB-231 breast was 3.48 µM; with PC-3 prostate, 0.0906 µM; with MCF7 breast, 0.0401 µM. Besides, the TGI in the experiment with MDA-MB-231 breast, in the experiment with PC-3 prostate and in the experiment with MCF7 breast was more than 100 µM in each case.

Turning to `CC(=O)c1ccc(NCn2nc(-c3ccccc3O)oc2=S)cc1`, the values for the GI50 in the experiment on MDA-MB-231 breast, with PC-3 prostate and with MCF7 breast were 37.6 µM, 46.4 µM and more than 100 µM, respectively. For the same compound, the TGI in the experiment with MDA-MB-231 breast, in the experiment with PC-3 prostate and with MCF7 breast was more than 100 µM throughout.

As for `COc1ccc(S(=O)(=O)N2CCCCC2)cc1NC(=O)c1[nH]c(C)c2c1CCCCC2=O`, the GI50 with MDA-MB-231 breast was 0.718 µM; with PC-3 prostate, 2.6 µM; in the experiment with MCF7 breast it was 0.666 µM. Moreover, the TGI in the experiment with MDA-MB-231 breast, in the experiment with PC-3 prostate and with MCF7 breast was more than 100 µM each time.

For `COc1ncnc2c1ncn2C/C(Br)=C(\Br)CCl`, the GI50 in the experiment on MDA-MB-231 breast was 2.4 µM; in the experiment with PC-3 prostate it was 9.12 µM; in the experiment with MCF7 breast it was 1.43 µM. Also, the TGI with MDA-MB-231 breast stood at 7.28 µM; in the experiment on PC-3 prostate it was 23.3 µM; in the experiment on MCF7 breast, 3.06 µM.

`CN1CCN(c2ccc3nc(-c4ccc5nc(-c6ccc(C(F)(F)F)cc6)[nH]c5c4)[nH]c3c2)CC1`: the GI50 in the experiment on MDA-MB-231 breast was 2.11 µM; in the experiment with PC-3 prostate, 1.66 µM; in the experiment with MCF7 breast it was 0.578 µM. For the same compound, the TGI with MDA-MB-231 breast was determined as 3.85 µM; in the experiment with PC-3 prostate it was 3.79 µM; in the experiment with MCF7 breast it was 2.19 µM.

In the case of `C[C@]1(O)CC(=O)[C@]2(O)C3=C(C=C[C@]2(O)C1)C(=O)c1c(O)cccc1C3=O`, in the experiment with MDA-MB-231 breast, the GI50 is 2.25 µM and the TGI was 6.6 µM. Moreover, in the experiment on PC-3 prostate, the GI50 is 2.42 µM and the TGI is 10.1 µM.

For `O=c1cc(-c2ccccc2)oc2cc(OCc3cn(Cc4ccc(F)cc4)nn3)cc(O)c12`, in the experiment with MDA-MB-231 breast, the GI50 is 16.6 µM and the TGI was more than 100 µM.

Turning to `CC(C)NCCCNC1=C(Cl)C(=O)c2ccccc2C1=O`, the figures for the GI50 in the experiment with MDA-MB-231 breast, with PC-3 prostate and in the experiment on MCF7 breast were 4.08 µM, 3.92 µM and 4.13 µM, respectively. The TGI worked out at 18.3 µM with MDA-MB-231 breast, 20.7 µM in the experiment on PC-3 prostate and 17.5 µM in the experiment on MCF7 breast.

Take `O=C(/C=C/c1ccccc1)c1ccc(O)c(CN2CCN(c3cc4c(cc3F)c(=O)c(C(=O)O)cn4C3CC3)CC2)c1`: the GI50 is 1.94 µM in the experiment on MDA-MB-231 breast, 0.897 µM in the experiment on PC-3 prostate and 0.688 µM in the experiment on MCF7 breast. Besides, the TGI in the experiment with MDA-MB-231 breast was 7.65 µM; in the experiment on PC-3 prostate it was more than 100 µM; in the experiment with MCF7 breast, more than 100 µM.

As to `Cc1cc(C)c(S(=O)(=O)Oc2ccccc2[N+](=O)[O-])c(C)c1`, the GI50 with MDA-MB-231 breast was 3.7 µM; in the experiment with PC-3 prostate, 3.31 µM; in the experiment with MCF7 breast, 2.81 µM. The TGI in the experiment on MDA-MB-231 breast, with PC-3 prostate and in the experiment with MCF7 breast was more than 100 µM in each case.
